N#Cc1ccncc1
solubility (mole fraction)
Conditions	278.15 K	283.15 K	288.15 K	293.15 K	298.15 K	303.15 K	308.15 K	313.15 K	318.15 K
in acetone	0.162	0.186	0.217	0.246	0.281	0.318	0.351	0.398	0.444
in ethanol	0.0165	0.0242	0.035	0.0506	0.073	0.101	0.142	0.19	0.261
in methanol	0.0384	0.0504	0.0656	0.0854	0.108	0.139	0.179	0.225	0.283
in n-propanol	0.042	0.0556	0.0718	0.0926	0.118	0.147	0.184	0.237	0.303
in water	0.00264	0.00327	0.004	0.00494	0.00603	0.00727	0.00875	0.0104	0.0123
